Assay results reported in ChEMBL document CHEMBL1833850, “Thailandepsins: bacterial products with potent histone deacetylase inhibitory activities and broad-spectrum antiproliferative activities” (J Nat Prod, 2011).

How the values were obtained:
[1] = target: Histone deacetylase 1/Nuclear receptor corepressor 2 (Homo sapiens, UniProt Q13547); assay: Inhibition of recombinant human HDAC1/NCOR2 using Boc-L-Lys(epsilon-acetyl)-AMC as substrate by two-step fluorogenic assay; type: protein-complex assay
Histone deacetylase 4 = Histone deacetylase 4 (Homo sapiens, UniProt P56524)
Histone deacetylase 9 = Histone deacetylase 9 (Homo sapiens, UniProt Q9UKV0)
Histone deacetylase 7 = target: T1, Histone deacetylase 7 (Homo sapiens, UniProt Q8WUI4)
T1 sequence (Q8WUI4 whole entry): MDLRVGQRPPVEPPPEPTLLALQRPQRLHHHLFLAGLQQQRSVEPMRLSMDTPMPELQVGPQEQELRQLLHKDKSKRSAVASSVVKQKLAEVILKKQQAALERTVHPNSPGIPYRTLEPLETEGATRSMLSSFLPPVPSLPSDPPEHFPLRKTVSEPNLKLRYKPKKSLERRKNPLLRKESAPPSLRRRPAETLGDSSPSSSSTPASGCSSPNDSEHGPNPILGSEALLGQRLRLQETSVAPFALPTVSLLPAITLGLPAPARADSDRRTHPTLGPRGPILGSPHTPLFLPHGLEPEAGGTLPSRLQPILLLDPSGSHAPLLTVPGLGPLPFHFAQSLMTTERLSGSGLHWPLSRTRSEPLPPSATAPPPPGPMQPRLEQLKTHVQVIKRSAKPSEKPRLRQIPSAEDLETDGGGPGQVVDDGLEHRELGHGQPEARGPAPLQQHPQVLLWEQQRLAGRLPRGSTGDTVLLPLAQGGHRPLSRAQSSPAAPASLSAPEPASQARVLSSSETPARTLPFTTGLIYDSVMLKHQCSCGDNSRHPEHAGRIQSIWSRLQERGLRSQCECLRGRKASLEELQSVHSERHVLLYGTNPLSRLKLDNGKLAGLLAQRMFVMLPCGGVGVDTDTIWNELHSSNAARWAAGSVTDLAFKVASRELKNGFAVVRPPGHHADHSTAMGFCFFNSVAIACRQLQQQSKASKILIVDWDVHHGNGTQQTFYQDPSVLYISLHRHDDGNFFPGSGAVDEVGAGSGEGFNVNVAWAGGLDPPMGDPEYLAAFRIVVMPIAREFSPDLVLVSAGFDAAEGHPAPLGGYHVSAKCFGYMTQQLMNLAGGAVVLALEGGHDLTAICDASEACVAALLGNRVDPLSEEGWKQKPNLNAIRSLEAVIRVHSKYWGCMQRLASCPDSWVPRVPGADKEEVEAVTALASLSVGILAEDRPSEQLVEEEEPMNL
Description: Inhibition of recombinant human HDAC7 using Boc-L-Lys(epsilon-trifluoroacetyl)-AMC as substrate by two-step fluorogenic assay

[2] = target: Histone deacetylase 2/Nuclear receptor corepressor 2 (Homo sapiens, UniProt Q92769); assay: Inhibition of recombinant human HDAC2/NCOR2 using Boc-L-Lys(epsilon-acetyl)-AMC as substrate by two-step fluorogenic assay; type: protein-complex assay
[3] = target: Histone deacetylase 3/Nuclear receptor corepressor 2 (HDAC3/NCoR2) (Homo sapiens, UniProt O15379); type: protein-complex assay
[4] = target: T2, Protein deacetylase HDAC6 (Homo sapiens, UniProt Q9UBN7); assay: Inhibition of recombinant human HDAC6 using Boc-L-Lys(epsilon-acetyl)-AMC as substrate by two-step fluorogenic assay
T2 sequence (Q9UBN7 whole entry): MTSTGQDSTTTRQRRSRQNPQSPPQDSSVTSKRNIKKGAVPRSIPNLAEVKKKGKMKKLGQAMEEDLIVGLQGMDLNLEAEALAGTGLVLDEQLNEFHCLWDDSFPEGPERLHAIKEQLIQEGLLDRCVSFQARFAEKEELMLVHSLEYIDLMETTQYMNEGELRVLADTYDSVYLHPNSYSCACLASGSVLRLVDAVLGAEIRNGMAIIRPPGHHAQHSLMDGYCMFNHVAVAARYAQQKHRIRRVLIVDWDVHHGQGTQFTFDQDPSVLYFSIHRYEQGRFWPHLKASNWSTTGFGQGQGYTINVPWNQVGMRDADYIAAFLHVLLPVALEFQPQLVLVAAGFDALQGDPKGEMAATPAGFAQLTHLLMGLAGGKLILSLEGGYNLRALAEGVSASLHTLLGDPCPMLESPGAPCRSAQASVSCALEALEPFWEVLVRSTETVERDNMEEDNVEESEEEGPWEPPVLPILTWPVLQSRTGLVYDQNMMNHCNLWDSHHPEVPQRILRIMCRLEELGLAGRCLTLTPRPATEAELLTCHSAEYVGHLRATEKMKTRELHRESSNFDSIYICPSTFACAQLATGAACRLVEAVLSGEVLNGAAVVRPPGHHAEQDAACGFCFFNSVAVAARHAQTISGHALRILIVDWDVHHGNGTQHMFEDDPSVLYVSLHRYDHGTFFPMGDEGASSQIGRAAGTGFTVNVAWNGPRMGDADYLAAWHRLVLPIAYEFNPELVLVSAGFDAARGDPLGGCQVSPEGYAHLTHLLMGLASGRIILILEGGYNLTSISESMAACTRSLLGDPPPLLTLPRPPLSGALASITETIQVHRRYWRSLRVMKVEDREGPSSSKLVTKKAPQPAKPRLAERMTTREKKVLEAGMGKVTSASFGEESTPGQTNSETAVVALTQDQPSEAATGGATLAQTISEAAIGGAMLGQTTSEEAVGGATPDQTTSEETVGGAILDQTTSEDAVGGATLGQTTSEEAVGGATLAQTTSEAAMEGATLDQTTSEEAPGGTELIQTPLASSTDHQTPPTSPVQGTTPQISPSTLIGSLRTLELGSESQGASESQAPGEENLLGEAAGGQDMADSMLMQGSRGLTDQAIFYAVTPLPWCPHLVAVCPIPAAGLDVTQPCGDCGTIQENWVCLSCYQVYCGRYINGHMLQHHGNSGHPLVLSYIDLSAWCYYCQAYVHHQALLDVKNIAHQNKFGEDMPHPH

Histone deacetylase 8 = target: T3, Histone deacetylase 8 (Homo sapiens, UniProt Q9BY41)
T3 sequence (Q9BY41 whole entry): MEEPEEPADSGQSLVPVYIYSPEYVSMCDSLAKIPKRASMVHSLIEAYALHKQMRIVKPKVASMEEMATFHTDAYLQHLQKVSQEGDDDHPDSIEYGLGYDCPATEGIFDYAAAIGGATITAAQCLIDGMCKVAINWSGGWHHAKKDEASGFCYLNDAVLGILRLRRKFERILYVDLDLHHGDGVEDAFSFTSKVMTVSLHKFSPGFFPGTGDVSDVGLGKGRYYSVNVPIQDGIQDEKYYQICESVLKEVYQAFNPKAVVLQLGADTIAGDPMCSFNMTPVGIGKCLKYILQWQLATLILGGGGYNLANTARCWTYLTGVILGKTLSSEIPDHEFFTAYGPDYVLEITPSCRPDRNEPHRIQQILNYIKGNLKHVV

Histone deacetylase 4, sequence (P56524 whole entry): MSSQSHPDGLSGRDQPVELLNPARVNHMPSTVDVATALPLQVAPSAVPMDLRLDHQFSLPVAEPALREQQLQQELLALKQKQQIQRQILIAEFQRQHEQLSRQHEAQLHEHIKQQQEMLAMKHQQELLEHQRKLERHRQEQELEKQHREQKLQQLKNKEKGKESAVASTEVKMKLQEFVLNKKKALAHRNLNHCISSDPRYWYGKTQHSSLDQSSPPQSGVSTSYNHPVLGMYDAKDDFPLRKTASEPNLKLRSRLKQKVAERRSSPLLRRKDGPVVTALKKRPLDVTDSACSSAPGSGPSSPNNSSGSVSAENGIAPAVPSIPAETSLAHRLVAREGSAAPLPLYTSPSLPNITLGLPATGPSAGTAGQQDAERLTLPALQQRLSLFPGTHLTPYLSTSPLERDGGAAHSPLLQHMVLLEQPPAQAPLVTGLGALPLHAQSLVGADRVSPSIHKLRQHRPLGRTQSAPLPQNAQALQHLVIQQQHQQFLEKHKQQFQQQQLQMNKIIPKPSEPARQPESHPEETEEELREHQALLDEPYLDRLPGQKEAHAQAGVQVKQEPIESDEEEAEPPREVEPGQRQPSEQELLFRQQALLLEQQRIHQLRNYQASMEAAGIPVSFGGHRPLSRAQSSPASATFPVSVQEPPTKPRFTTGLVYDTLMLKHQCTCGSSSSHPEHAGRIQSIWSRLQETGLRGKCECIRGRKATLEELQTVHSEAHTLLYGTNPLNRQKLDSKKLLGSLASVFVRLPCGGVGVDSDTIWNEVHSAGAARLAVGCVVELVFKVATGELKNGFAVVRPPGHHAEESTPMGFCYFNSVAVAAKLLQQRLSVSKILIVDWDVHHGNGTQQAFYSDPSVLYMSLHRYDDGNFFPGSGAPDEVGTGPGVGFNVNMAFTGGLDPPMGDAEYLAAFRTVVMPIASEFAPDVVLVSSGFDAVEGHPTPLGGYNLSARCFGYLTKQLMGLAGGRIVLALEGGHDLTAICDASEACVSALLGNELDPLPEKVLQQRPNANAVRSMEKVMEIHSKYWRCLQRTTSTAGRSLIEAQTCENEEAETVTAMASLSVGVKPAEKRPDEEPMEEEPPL
Histone deacetylase 9, sequence (Q9UKV0 whole entry): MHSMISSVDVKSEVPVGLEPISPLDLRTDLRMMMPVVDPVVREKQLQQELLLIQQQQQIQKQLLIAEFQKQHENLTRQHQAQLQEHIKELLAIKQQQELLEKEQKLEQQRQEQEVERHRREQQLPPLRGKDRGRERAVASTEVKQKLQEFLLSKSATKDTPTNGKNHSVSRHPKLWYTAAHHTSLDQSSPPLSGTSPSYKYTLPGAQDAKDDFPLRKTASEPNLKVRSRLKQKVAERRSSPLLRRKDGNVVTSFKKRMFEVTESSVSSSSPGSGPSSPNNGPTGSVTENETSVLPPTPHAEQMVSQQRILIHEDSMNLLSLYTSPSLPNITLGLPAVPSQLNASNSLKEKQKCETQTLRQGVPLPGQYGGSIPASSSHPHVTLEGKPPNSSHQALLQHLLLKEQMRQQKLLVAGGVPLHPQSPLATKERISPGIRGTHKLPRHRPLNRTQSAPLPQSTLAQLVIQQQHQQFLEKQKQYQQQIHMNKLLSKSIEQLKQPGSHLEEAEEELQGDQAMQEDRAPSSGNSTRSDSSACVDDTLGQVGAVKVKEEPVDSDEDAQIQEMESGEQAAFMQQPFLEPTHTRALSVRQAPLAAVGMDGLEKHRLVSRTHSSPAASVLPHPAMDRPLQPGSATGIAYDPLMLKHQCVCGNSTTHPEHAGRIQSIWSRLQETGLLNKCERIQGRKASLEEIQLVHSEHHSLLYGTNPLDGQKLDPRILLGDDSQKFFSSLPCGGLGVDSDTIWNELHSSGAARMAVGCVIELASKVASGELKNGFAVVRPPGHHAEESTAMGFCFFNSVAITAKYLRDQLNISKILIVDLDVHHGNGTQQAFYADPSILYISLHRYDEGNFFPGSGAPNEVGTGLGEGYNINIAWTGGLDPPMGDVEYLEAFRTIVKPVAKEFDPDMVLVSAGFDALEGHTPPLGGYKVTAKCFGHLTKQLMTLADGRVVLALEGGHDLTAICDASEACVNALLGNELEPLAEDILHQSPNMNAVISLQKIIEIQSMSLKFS
Histone deacetylase 1/Nuclear receptor corepressor 2, sequence (Q13547 whole entry): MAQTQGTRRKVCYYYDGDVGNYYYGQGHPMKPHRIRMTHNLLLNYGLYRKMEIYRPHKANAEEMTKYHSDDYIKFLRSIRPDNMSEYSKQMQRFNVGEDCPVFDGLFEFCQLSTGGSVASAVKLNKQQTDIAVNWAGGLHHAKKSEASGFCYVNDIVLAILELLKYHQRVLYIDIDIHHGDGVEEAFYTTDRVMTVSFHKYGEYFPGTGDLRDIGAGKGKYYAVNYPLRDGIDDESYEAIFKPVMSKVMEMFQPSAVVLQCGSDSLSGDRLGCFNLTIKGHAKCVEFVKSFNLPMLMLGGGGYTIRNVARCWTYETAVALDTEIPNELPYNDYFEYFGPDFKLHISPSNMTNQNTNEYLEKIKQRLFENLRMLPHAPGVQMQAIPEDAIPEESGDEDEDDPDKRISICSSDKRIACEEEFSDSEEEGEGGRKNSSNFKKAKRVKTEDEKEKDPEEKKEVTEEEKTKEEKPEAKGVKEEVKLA
Histone deacetylase 1/Nuclear receptor corepressor 2, sequence (Q9Y618 whole entry, further chain): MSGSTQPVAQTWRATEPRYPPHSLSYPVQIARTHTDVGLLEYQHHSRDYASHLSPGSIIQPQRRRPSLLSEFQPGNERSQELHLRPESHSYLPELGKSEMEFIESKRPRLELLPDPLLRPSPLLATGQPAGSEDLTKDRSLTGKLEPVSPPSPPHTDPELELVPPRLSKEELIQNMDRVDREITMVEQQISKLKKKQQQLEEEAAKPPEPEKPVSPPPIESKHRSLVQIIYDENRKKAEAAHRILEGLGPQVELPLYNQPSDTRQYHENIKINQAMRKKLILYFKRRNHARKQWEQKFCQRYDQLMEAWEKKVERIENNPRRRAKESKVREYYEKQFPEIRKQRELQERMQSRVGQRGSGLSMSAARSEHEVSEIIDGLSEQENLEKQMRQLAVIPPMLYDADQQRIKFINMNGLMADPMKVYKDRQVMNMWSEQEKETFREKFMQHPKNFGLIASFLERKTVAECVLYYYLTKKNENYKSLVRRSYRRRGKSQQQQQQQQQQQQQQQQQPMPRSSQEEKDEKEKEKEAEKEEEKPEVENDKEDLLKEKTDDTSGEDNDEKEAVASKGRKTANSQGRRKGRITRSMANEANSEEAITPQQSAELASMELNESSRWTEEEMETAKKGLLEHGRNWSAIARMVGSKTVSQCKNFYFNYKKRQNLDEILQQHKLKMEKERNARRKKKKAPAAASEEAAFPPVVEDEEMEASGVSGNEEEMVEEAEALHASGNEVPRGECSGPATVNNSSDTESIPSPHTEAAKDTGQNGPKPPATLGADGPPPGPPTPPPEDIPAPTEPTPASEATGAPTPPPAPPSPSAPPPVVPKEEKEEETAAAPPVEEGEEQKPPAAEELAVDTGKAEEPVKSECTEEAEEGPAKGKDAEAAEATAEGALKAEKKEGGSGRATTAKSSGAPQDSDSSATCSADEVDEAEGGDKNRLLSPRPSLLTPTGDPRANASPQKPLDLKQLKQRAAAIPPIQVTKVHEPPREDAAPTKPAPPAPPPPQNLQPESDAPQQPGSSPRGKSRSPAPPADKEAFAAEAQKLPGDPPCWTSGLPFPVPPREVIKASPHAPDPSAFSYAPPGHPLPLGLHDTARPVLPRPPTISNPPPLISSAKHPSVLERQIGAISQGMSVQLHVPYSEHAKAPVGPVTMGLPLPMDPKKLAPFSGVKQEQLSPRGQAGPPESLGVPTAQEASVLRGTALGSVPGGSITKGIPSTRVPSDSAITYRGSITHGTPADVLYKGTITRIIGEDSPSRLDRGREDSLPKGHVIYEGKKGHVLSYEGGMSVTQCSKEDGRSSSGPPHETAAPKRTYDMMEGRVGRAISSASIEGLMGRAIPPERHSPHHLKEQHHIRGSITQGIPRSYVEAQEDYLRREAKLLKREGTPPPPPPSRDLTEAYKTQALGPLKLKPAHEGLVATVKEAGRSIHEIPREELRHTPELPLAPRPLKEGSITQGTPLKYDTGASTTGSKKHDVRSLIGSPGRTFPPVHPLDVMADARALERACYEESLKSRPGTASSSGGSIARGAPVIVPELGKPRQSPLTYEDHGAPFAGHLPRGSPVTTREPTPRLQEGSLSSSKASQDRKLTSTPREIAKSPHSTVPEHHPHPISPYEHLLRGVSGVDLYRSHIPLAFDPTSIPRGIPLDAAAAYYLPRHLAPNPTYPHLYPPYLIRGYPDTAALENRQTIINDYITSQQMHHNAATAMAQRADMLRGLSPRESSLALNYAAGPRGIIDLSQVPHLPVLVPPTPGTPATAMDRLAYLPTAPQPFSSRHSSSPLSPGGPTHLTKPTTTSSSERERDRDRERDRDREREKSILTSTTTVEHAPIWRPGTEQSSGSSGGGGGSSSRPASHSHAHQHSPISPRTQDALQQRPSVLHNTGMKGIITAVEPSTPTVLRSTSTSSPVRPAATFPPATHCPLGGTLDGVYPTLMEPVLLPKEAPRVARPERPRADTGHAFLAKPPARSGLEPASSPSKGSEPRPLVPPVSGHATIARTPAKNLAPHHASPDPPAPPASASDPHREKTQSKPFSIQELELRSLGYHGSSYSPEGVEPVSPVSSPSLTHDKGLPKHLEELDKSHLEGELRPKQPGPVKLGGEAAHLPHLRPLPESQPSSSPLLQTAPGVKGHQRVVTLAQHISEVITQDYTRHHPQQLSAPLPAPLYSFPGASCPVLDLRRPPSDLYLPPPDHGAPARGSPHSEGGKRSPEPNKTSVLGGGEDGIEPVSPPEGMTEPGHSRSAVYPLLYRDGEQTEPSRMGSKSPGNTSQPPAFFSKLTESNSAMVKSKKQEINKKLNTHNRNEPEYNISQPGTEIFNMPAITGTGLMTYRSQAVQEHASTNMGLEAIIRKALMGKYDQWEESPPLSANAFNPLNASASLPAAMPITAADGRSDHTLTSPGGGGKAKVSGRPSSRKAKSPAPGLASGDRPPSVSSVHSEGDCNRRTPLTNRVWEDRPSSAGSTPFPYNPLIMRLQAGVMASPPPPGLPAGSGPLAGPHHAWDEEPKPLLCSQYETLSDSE

SMILES	IC50 [1] [µM]	IC50 (Histone deacetylase 4) [µM]	IC50 (Histone deacetylase 9) [µM]	IC50 (Histone deacetylase 7) [µM]	IC50 [2] [µM]	IC50 [3] [µM]	IC50 [4] [µM]	IC50 (Histone deacetylase 8) [µM]
C/C=C1\NC(=O)[C@H]2CSSCC/C=C/[C@H](CC(=O)N[C@H](C(C)C)C(=O)N2)OC(=O)[C@H](C(C)C)NC1=O [ROMIDEPSIN]	6.7	> 50	> 50	> 50	–	–	–	–
CCCC[C@H]1NC(=O)C[C@H]2/C=C/CCSSC[C@@H](NC1=O)C(=O)N[C@H]([C@@H](C)CC)[C@@H](O)CC(=O)O2 [THAILANDEPSIN B]	7.7	22	> 50	–	4.5	0.023	11	30
CC[C@H](C)[C@H]1NC(=O)[C@H]2CSSCC/C=C/[C@H](CC(=O)N[C@H](CCSC)C(=O)N2)OC(=O)C[C@@H]1O [THAILANDEPSIN A]	7.5	> 50	> 50	> 50	39	0.087	9.9	> 50
